This note sets out measurements from US20250082705A1, “COMPOSITION FOR IMPROVING, PREVENTING, OR TREATING SLEEP DISORDERS COMPRISING DENDROPANAX MORBIFERA EXTRACTS” (JEJU PANATEK Co., Ltd., priority 2023, published 2025).

Assay [1] is described as follows: ABTS radical scavenging assay. It is filed as biochemical. Particulars: mean ± standard deviation. On the procedure:
(§1) The antioxidant activity of the Dendropanax morbifera ethanol extract was analyzed using an ABTS (2,2′-azino-bis (3-ethylbenzothiazoline-6-sulfonic acid)) assay and a DPPH (1,1-diphenyl-2-picrylhydrazyl) assay. As the experimental result, the concentration of a sample that appeared when the absorbance decreased by 50% was represented as IC50, and ascorbic acid was used as a standard material.
Specifically, in the ABTS method, the ABTS solution was mixed with the extract at a ratio of 20:1 and the absorbance was measured. Light was blocked at room temperature and the results were confirmed at 414 nm after 60 minutes of reaction. The ABTS solution was obtained by dissolving 7.4 mM ABTS and 2.6 mM potassium persulfate in distilled water and stored at 4° C. for 1 day, and adjusted so that a blank value was 1.4 to 1.5.

The nature of assay [2]: DPPH radical scavenging assay. It is filed as biochemical. Conditions: mean ± standard deviation. The protocol:
as §1
In the DPPH method, the absorbance was measured by mixing a
DPPH·methanol solution with the sample in a 1:1 ratio. Light was blocked at room temperature and the results were confirmed at 520 nm after 5 minutes of reaction. The DPPH·methanol solution was adjusted so that the blank value was 1.7 to 1.8.
A general note: The DPPH test is a chemical assay of radical scavenging.

Structures are written as SMILES.

Take `O=C1O[C@H]([C@@H](O)CO)C(O)=C1O` [Ascorbic acid]: in assay [1], the “ABTS IC50” value is 71 ± 2 µg/mL. Further, the “DPPH IC50” value in assay [2] is 25 ± 1 µg/mL.
